Measurements reported in patent US12077503B2, “Substituted cyclic amides and their use as herbicides” (FMC CORPORATION, priority 2015, dated 2024).

How the values were obtained:
Type in all cases: in vivo
[1] = tested on: barnyardgrass (Echinochloa crus-galli); experiment: Test A preemergence; settings: Preemergence
In short: (§1)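 Seeds sprayed preemergence with a directed soil spray, or plants at 2 to 10 cm height and one- to two-leaf stage sprayed postemergence, with test chemicals in a non-phytotoxic solvent mixture containing surfactant, in loam soil–sand blend. Injury rated visually against untreated controls after about 10 d in greenhouse, 0 (no effect) to 100 (complete control).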

[2] = tested on: ragweed (common ragweed, Ambrosia elatior); experiment: Test A preemergence; settings: 125 g ai/ha, Preemergence; visual injury after approximately 10 d; 0 to 100 scale where 0 is no effect and 100 is complete control
In short: as §1

[3] = tested on: pigweed (Amaranthus retroflexus); experiment: Test A preemergence; settings: Preemergence
[4] = tested on: ryegrass, Italian (Italian ryegrass, Lolium multiflorum); experiment: Test A preemergence; settings: Preemergence
In short: as §1

Kochia (Kochia scoparia) [5] = experiment: Test A preemergence; settings: Preemergence
In short: as §1

[6] = tested on: giant foxtail (Setaria faberii); experiment: Test A preemergence; settings: Preemergence
In short: as §1

[7] = tested on: barnyardgrass (Echinochloa crus-galli); experiment: Test B flooded paddy test; settings: Flood, 250 g ai/ha; 0 to 100 scale where 0 is no effect and 100 is complete control; 13 to 15 d
In short: (§2)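 Greenhouse paddy pots with 2-leaf stage plants received compound by direct addition to floodwater 3 cm deep, kept at that level. Scored visually at 13–15 d versus controls (0 no effect; 100 complete control).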

rice (Oryra sativa) = experiment: Test B flooded paddy test; settings: Flood, 250 g ai/ha; 0 to 100 scale where 0 is no effect and 100 is complete control; 13 to 15 d
In short: as §2

[8] = tested on: sedge, umbrella (small-flower umbrella sedge, Cyperus difformis); experiment: Test B flooded paddy test; settings: Flood, 250 g ai/ha; 0 to 100 scale where 0 is no effect and 100 is complete control; 13 to 15 d
In short: as §2

[9] = tested on: ducksalad (Heteranthera limosa); experiment: Test B flooded paddy test; settings: Flood, 250 g ai/ha; 0 to 100 scale where 0 is no effect and 100 is complete control; 13 to 15 d
In short: as §2

[10] = tested on: barnyardgrass (Echinochloa crus-galli); experiment: Test C flooded paddy test; settings: Flood, 0 is no effect, 100 is complete control
Excerpt: (§3) Plant species in the flooded paddy test consisted of rice (Oryza sativa), sedge, umbrella (small-flower umbrella sedge, Cyperus difformis), ducksalad (Heteranthera limosa), and barnyardgrass (Echinochloa crus-galli) grown to the 2-leaf stage for testing. At time of treatment, test pots were flooded to 3 cm above the soil surface, treated by application of test compounds directly to the paddy water, and then maintained at that water depth for the duration of the test. Treated plants and controls were maintained in a greenhouse for 13 to 15 d, after which time all species were compared to controls and visually evaluated. Plant response ratings, summarized in Table C, are based on a scale of 0 to 100 where 0 is no effect and 100 is complete control. A dash (-) response means no test result.

[11] = tested on: sedge, umbrella (small-flower umbrella sedge, Cyperus difformis); experiment: Test C flooded paddy test; settings: Flood, 0 is no effect, 100 is complete control
Excerpt: as §3

[12] = tested on: ducksalad (Heteranthera limosa); experiment: Test C flooded paddy test; settings: Flood, 0 is no effect, 100 is complete control
Excerpt: as §3

rice (Oryza sativa) = experiment: Test C flooded paddy test; settings: Flood, 0 is no effect, 100 is complete control
Excerpt: as §3

[13] = tested on: blackgrass (Alopecurus myosuroides); experiment: Test A postemergence
In short: as §1

[14] = tested on: barnyardgrass (Echinochloa crus-galli); experiment: Test A postemergence
In short: as §1

corn (Zea mays) = experiment: Test A postemergence
In short: as §1

[15] = tested on: ragweed (common ragweed, Ambrosia elatior); experiment: Test A postemergence
In short: as §1

[16] = tested on: Galium (catchweed bedstraw, Galium aparine); experiment: Test A postemergence
In short: as §1

[17] = tested on: pigweed (Amaranthus retroflexus); experiment: Test A postemergence
In short: as §1

[18] = tested on: ryegrass, Italian (Italian ryegrass, Lolium multiflorum); experiment: Test A postemergence
In short: as §1

Kochia (Kochia scoparia) [19] = experiment: Test A postemergence
In short: as §1

[20] = tested on: wheat (Triticum aestivum); experiment: Test A postemergence
In short: as §1

[21] = tested on: giant foxtail (Setaria faberii); experiment: Test A postemergence
In short: as §1

[22] = 125 g ai/ha, visual injury after approximately 10 d, 0 to 100 scale where 0 is no effect and 100 is complete control
[23] = 500 g ai/ha, visual injury approx. 10 d
[24] = 125 g ai/ha, postemergence, visual rating after approx. 10 d, 0 to 100 scale (0 no effect, 100 complete control)
[25] = Postemergence, 500 g ai/ha, 0 to 100 scale where 0 is no effect and 100 is complete control

CN1CC(c2ccc(F)c(C(F)(F)F)c2)C(C(=O)Nc2ccccc2F)C1=O (stereo not drawn) [Compound 611]
Plant response rating, Barnyardgrass [1, 22]: 90 | Barnyardgrass plant response rating (0 to 100 scale, 0 is no effect, 100 is complete control) [1, 23]: 90 | Plant response rating, Ragweed [2]: 0 | Plant response rating, Pigweed [3, 22]: 70 | Pigweed plant response rating (0 to 100 scale, 0 is no effect, 100 is complete control) [3, 23]: 80 | Plant response rating, Ryegrass, Italian [4, 22]: 60 | Ryegrass, Italian plant response rating (0 to 100 scale, 0 is no effect, 100 is complete control) [4, 23]: 60 | Plant response rating, Kochia (Kochia (Kochia scoparia) [5]; [22]): 40 | Kochia plant response rating (0 to 100 scale, 0 is no effect, 100 is complete control) (Kochia (Kochia scoparia) [5]; [23]): 60 | Plant response rating, Foxtail, Giant [6, 22]: 90 | Foxtail, Giant plant response rating (0 to 100 scale, 0 is no effect, 100 is complete control) [6, 23]: 90 | Plant response rating, Barnyardgrass [7]: 85 | Plant response rating, Rice (rice (Oryra sativa)): 40 | Plant response rating, Sedge, Umbrella [8]: 0 | Plant response rating, Ducksalad [9]: 100 | Plant response rating (scale of 0 to 100), Barnyardgrass ([10]; 31 g ai/ha): 0 | Plant response rating (scale of 0 to 100), Barnyardgrass ([10]; 62 g ai/ha): 0 | Plant response rating (scale of 0 to 100), Barnyardgrass ([10]; 125 g ai/ha): 60 | Plant response rating (scale of 0 to 100), Barnyardgrass ([10]; 250 g ai/ha): 75 | Plant response rating (scale of 0 to 100), Sedge, Umbrella ([11]; 31 g ai/ha): 0 | Plant response rating (scale of 0 to 100), Sedge, Umbrella ([11]; 62 g ai/ha): 0 | Plant response rating (scale of 0 to 100), Sedge, Umbrella ([11]; 125 g ai/ha): 0 | Plant response rating (scale of 0 to 100), Sedge, Umbrella ([11]; 250 g ai/ha): 0 | Plant response rating (scale of 0 to 100), Ducksalad ([12]; 31 g ai/ha): 0 | Plant response rating (scale of 0 to 100), Ducksalad ([12]; 62 g ai/ha): 0 | Plant response rating (scale of 0 to 100), Ducksalad ([12]; 125 g ai/ha): 80 | Plant response rating (scale of 0 to 100), Ducksalad ([12]; 250 g ai/ha): 95 | Plant response rating (scale of 0 to 100), Rice (rice (Oryza sativa); 31 g ai/ha): 0 | Plant response rating (scale of 0 to 100), Rice (rice (Oryza sativa); 62 g ai/ha): 0 | Plant response rating (scale of 0 to 100), Rice (rice (Oryza sativa); 125 g ai/ha): 0 | Plant response rating (scale of 0 to 100), Rice (rice (Oryza sativa); 250 g ai/ha): 15 | Plant response rating, Blackgrass [13, 24]: 50 | Plant response rating, Blackgrass [13, 25]: 70 | Plant response rating, Barnyardgrass [14, 24]: 90 | Plant response rating, Barnyardgrass [14, 25]: 90 | Plant response rating, Corn (corn (Zea mays); [24]): 50 | Plant response rating, Corn (corn (Zea mays); [25]): 70 | Plant response rating, Ragweed [15, 24]: 0 | Plant response rating, Ragweed [15, 25]: 30 | Plant response rating, Galium [16, 24]: 50 | Plant response rating, Galium [16, 25]: 60 | Plant response rating, Pigweed [17, 24]: 20 | Plant response rating, Pigweed [17, 25]: 30 | Plant response rating, Ryegrass, Italian [18, 24]: 40 | Plant response rating, Ryegrass, Italian [18, 25]: 70 | Plant response rating, Kochia (Kochia (Kochia scoparia) [19]; [24]): 60 | Plant response rating, Kochia (Kochia (Kochia scoparia) [19]; [25]): 70 | Plant response rating, Wheat [20, 24]: 40 | Plant response rating, Wheat [20, 25]: 60 | Plant response rating, Foxtail, Giant [21, 24]: 90 | Plant response rating, Foxtail, Giant [21, 25]: 90
